Active and inactive are the calls of the source. The calls are words filed in the database; no cut-off is given here. Bounds are passed on as bounds.

The target of test [1] is Proto-oncogene tyrosine-protein kinase receptor Ret (Homo sapiens, UniProt P07949). Put plainly: Inhibition of 5FAM-tagged RET (unknown origin) using 5FAM-EPLYWSFPA as substrate incubated for 60 mins.
For test [2], the target named is T1, High affinity nerve growth factor receptor (Homo sapiens, UniProt P04629). Put plainly: Inhibition of TRK (unknown origin).
Target sequence in this assay (P04629 whole entry): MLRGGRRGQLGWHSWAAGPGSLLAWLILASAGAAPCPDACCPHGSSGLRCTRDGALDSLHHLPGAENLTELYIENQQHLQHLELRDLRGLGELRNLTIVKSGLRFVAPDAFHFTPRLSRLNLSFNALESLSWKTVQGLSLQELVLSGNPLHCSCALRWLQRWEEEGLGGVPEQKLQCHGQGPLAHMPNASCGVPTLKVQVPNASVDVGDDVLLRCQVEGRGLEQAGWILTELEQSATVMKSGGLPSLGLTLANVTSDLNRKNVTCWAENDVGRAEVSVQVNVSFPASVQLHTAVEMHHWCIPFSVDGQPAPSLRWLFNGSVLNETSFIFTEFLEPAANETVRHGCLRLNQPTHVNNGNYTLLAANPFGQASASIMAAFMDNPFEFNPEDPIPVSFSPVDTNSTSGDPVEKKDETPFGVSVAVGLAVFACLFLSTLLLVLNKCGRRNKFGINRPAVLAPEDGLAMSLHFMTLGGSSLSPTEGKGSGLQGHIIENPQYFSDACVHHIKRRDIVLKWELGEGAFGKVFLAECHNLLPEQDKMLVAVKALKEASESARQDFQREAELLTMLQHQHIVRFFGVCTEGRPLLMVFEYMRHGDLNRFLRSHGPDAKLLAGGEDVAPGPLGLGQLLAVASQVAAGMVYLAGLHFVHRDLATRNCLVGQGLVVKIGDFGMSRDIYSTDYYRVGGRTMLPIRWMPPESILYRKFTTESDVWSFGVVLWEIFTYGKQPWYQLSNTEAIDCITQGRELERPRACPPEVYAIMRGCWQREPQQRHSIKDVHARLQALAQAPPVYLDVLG
Test [3] has as its system KM12. Put plainly: Induction of cell cycle arrest in human KM12 cells assessed as accumulation of cells at G1 phase at 1 uM incubated for 24 hrs by flow cytometry analysis. The format is functional, cell-based.
Test [4] addresses T1, High affinity nerve growth factor receptor. Put plainly: Inhibition of TRK autophosphorylation (unknown origin).
Target sequence in this assay (P04629 33-796 limits assumed): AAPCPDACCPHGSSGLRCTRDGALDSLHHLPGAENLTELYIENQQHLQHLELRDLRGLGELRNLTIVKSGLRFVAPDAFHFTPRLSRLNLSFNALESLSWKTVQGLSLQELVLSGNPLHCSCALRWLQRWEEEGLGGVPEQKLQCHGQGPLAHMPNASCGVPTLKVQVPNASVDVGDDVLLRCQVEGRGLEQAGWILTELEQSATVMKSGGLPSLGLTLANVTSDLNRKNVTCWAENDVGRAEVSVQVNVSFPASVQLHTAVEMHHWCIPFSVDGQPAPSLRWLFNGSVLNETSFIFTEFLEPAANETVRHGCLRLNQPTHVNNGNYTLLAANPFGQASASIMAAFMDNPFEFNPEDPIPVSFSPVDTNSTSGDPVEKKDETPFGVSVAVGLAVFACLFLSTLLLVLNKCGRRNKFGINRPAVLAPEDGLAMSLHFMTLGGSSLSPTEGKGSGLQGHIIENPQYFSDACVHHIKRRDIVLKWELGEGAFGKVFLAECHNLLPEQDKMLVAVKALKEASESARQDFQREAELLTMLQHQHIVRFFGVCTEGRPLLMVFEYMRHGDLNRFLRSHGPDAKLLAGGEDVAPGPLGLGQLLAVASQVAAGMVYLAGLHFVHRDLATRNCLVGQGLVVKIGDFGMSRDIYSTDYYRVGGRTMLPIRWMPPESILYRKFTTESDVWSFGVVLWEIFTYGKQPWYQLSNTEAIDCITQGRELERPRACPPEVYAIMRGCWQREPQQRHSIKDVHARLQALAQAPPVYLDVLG
For test [5], the system named is LC-2-ad. Put plainly: Induction of cell cycle arrest in human LC-2-ad cells assessed as accumulation of cells at G1 phase at 1 uM incubated for 24 hrs by flow cytometry analysis. The format is functional, cell-based. Background: Flow cytometry measures light scatter and fluorescence of single cells or particles in a stream.
The test system of test [6] is LC-2-ad. Put plainly: Antiproliferative activity against human LC-2-ad cells harbouring RET assessed as reduction in cell viability. The format is functional.
For test [7], the system named is KM12. Put plainly: Induction of cell cycle arrest in human KM12 cells assessed as accumulation of cells at G1 phase at 0.01 uM incubated for 24 hrs by flow cytometry analysis. The format is functional, cell-based.
The subject of test [8] is KM12. Put plainly: Antiproliferative activity against human KM12 cells harbouring TRK assessed as reduction in cell viability. The format is functional.
Test [9] deals with LC-2-ad. The test can be described thus: Induction of cell cycle arrest in human LC-2-ad cells assessed as accumulation of cells at G1 phase at 0.01 uM incubated for 24 hrs by flow cytometry analysis. The format is functional, cell-based.
Test [10] has as its system A549. The test can be described thus: Antiproliferative activity against human A549 cells harbouring KRAS assessed as reduction in cell viability. Format: functional.
Test [11] has as its system A549. Put plainly: Induction of cell cycle arrest in human A549 cells assessed as accumulation of cells at G1 phase at 0.01 uM incubated for 24 hrs by flow cytometry analysis. The format is functional, cell-based.
Test [12] concerns the target T1, High affinity nerve growth factor receptor. The test can be described thus: Inhibition of TRK autophosphorylation in human KM12 cells at 0.01 to 1 uM measured after 24 hrs by Western blot analysis. Format: cell-based. The settings on record: dose 0.01-1 µM. On the technique in general: In western blotting, separated proteins are transferred to a membrane and probed.
Target sequence in this assay (P04629 33-796 limits assumed): as above

Test [13] shares this target. Put plainly: Inhibition of TRK autophosphorylation in human LC-2-ad cells at 0.01 to 1 uM measured after 24 hrs by Western blot analysis. Format: cell-based. The settings on record: dose 0.01-1 µM.
Target sequence in this assay (P04629 33-796 limits assumed): as above

Sequence of Proto-oncogene tyrosine-protein kinase receptor Ret (P07949 whole entry): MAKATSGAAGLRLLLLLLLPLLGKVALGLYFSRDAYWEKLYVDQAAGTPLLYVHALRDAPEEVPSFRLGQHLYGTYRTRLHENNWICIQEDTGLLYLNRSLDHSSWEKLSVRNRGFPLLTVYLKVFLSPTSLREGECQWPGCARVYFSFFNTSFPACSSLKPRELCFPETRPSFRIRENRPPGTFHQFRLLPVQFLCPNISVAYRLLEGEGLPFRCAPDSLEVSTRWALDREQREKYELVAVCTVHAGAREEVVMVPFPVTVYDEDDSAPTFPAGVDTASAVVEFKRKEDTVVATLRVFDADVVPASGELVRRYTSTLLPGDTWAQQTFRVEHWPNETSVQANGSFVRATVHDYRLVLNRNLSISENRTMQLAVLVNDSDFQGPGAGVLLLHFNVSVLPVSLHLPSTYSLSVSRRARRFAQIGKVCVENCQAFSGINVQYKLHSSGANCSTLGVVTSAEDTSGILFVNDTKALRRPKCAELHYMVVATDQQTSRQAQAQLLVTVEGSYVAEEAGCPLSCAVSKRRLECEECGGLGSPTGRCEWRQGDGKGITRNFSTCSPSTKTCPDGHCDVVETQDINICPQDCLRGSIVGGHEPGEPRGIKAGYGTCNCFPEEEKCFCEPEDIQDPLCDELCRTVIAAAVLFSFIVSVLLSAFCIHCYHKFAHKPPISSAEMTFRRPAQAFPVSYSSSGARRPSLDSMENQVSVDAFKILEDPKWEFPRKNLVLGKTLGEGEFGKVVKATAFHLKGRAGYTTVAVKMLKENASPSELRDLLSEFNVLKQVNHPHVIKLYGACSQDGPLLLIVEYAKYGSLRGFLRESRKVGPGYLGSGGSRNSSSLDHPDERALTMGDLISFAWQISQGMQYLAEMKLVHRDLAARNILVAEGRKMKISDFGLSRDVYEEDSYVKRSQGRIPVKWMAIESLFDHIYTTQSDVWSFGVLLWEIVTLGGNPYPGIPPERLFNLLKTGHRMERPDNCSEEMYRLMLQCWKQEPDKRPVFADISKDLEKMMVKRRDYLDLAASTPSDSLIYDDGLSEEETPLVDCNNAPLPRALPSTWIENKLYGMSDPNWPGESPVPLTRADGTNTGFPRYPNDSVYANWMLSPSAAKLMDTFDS

As a reminder, the IC50 is the point on the concentration scale where inhibition reaches its midpoint. Regarding `Cn1cc(-c2ccc3c(c2)ncn3-c2ccc(CC(=O)Nc3cc(C(C)(C)C)on3)cc2)cn1`, the IC50 in test [1] came out at 1 nM; in test [2] it was 1.6 nM.

On to `Cn1cc(-c2ccc3c(c2)[nH]c2ncnc(Nc4ccc(CC(=O)Nc5cc(C(C)(C)C)on5)cc4)c23)cn1`, for which the result in the test on KM12 [3] and in the test on LC-2-ad [5] was Active. In [4], the inhibition entry is “Active”.

In the case of `CNC(=O)c1cc(Oc2ccc(NC(=O)Nc3ccc(Cl)c(C(F)(F)F)c3)cc2)ccn1` [SORAFENIB], the GC50 with LC-2-ad [6] amounted to 540 nM; in the test on KM12 [8] it was 3820 nM; in the test on A549 [10], 7200 nM. For the same compound, the result in the test with KM12 [7], with LC-2-ad [9] and in the test with A549 [11] was Active.

For `C[C@@H]1CCc2ncc(F)cc2[C@H]2CCCN2c2ccn3ncc(c3n2)C(=O)N1` [SELITRECTINIB], the values for the GC50 in the test with LC-2-ad [6], in the test with KM12 [8] and in the test with A549 [10] were 25980 nM, 5 nM and >40000 nM, respectively. Moreover, the result with KM12 [7], in the test with LC-2-ad [9] and in the test on A549 [11] was Active.

Regarding `O=C(Cc1ccc(Nc2ncnc3[nH]c4ccccc4c23)cc1)Nc1cccc(C(F)(F)F)c1`, the GC50 was 940 nM with LC-2-ad [6], 490 nM in the test on KM12 [8] and >10000 nM in the test with A549 [10].

As to `COc1cc2nccc(Oc3ccc(NC(=O)C4(C(=O)Nc5ccc(F)cc5)CC4)cc3)c2cc1OC` [CABOZANTINIB], half-maximal inhibition in test [2] (IC50) required 79 nM.

Regarding `Cn1nc(C(C)(C)C)cc1NC(=O)Cc1ccc(Nc2ncnc3[nH]c4ccccc4c23)cc1`, the inhibition entry in test [12], in test [4] and in test [13] was “Active” throughout. Further, the result in the test with KM12 [3] and with LC-2-ad [5] was Active.

For `COCCn1cc(-c2ccc3c(c2)[nH]c2ncnc(Nc4ccc(CC(=O)Nc5cc(C(C)(C)C)on5)cc4)c23)cn1`, the GC50 came to 360 nM in the test with LC-2-ad [6], 590 nM in the test with KM12 [8] and 5880 nM in the test with A549 [10].

As to `Cn1cc(-c2ccc3c(c2)[nH]c2ncnc(Nc4ccc(CC(=O)Nc5cc(C(C)(C)C)nn5C)cc4)c23)cn1`, the inhibition entry in test [12], in test [4] and in test [13] was “Active” each time. Further, the result with KM12 [3] and in the test with LC-2-ad [5] was Active.

These data come from ChEMBL document CHEMBL5550150, “Discovery of 9H-pyrimido[4,5-b]indole derivatives as dual RET/TRKA inhibitors” (Bioorg Med Chem, 2024).
